Earlier results in patent US6420378B1, “Inhibition of abnormal cell proliferation with camptothecin and combinations including the same” (priority 1999, dated 2002).

Columns and labels:
[1] = clinical trials, administered intravenously
[2] = test system: human colon cancer xenografts; settings: mouse, in vivo
[3] = test system: nontumorigenic human cells; settings: in vitro
tumorigenic human cells = settings: in vitro

In the case of CC[C@@](O)(C(=O)[O-])c1cc2n(c(=O)c1CO)Cc1cc3ccccc3nc1-2.[Na+] [20(S)-camptothecin Na+], the potency [1] is given as “low potency” and the toxicity [1] is given as “high toxicity”.

In the case of CC[C@@]1(O)C(=O)OCc2c1cc1n(c2=O)Cc2cc3c(N)cccc3nc2-1 [9AC, 9-Amino-20(S)-Camptothecin], the “anticancer activity against human colon cancer xenografts” value [2] is listed as “high anticancer activity”.

For CC[C@@]1(O)C(=O)OCc2c1cc1n(c2=O)Cc2cc3ccccc3nc2-1 [20(S)-camptothecin], the “effect on nontumorigenic cells” value [3] is listed as “cytostatic” and the “effect on tumorigenic cells” value (tumorigenic human cells) is listed as “cytotoxic”.

For CC[C@@]1(O)C(=O)OCc2c1cc1n(c2=O)Cc2cc3cc4c(cc3nc2-1)OCO4 [10,11 MD, 10,11-Methylendioxy-20(S)-Camptothecin], the “anticancer activity against human colon cancer xenografts” value [2] is listed as “high anticancer activity”.

In the case of CC[C@@]1(O)C(=O)OCc2c1cc1n(c2=O)Cc2cc3c([N+](=O)[O-])cccc3nc2-1 [9NC, 9-nitrocamptothecin], the “growth of human tumor xenografts” value (human tumor xenografts; immunodeficient nude mice) is given as “inhibited the growth”, the “activity against human tumor xenograft models” value (human tumor xenografts; mouse, in vivo) is given as “high activity” and the “regression of human tumors established as xenografts” value (human tumor xenografts; nude mice) is given as “induced regression”.
